Values of other authors as cited in paper PMC6318274, “Lattice engineering enables definition of molecular features allowing for potent small-molecule inhibition of HIV-1 entry” (Nature Communications, 2019).
Where two headings read alike, the source gives them in different places.

System: HIV-1 Env-pseudoviruses (208-strain panel)
Details: cited from earlier work; for IC50: read-out: IC50; for % Neutralized / Total Neutralized: 208 viruses

For COc1cnc(-n2cnc(C)n2)c2[nH]cc(C(=O)C(=O)N3CCN(C(=O)c4ccccc4)CC3)c12 [BMS-626529], which IC50 (CNE20, clade BC) is on record?
The IC50 was 339 nM.

What about the IC50 (CNE21, clade BC) of the same molecule?
The IC50 was 2 nM.

And the IC50 (CNE30, clade C)?
Its IC50 is 1 nM.

And the IC50 (CNE31, clade C)?
Its IC50 is 23 nM.

And the IC50 (CNE40, clade BC)?
The IC50 was 38 nM.

What about the IC50 (CNE53, clade C) of the same molecule?
The IC50 was 0.5 nM.

What about the IC50 (CNE55, clade AE) of the same molecule?
The IC50 was 4770 nM.

What about the IC50 (CNE56, clade AE) of the same molecule?
Its IC50 is over 20000 nM.

What about the IC50 (CNE57, clade B) of the same molecule?
Its IC50 is 2 nM.

What about the IC50 (CNE58, clade C) of the same molecule?
The IC50 was 4 nM.

And the IC50 (CNE59, clade AE)?
Its IC50 is over 20000 nM.

What about the IC50 (Ce1176.A3, clade C) of the same molecule?
The IC50 was 10 nM.

What about the IC50 (DJ263.8, clade AG) of the same molecule?
Its IC50 is 11 nM.

And the IC50 (DU123.06, clade C)?
The IC50 was 5 nM.

What about the IC50 (DU151.02, clade C) of the same molecule?
Its IC50 is 6 nM.

And the IC50 (DU156.12, clade C)?
The IC50 was 3 nM.

What about the IC50 (DU172.17, clade C) of the same molecule?
Its IC50 is 8 nM.

And the IC50 (DU422.01, clade C)?
Its IC50 is 8 nM.

And the IC50 (HO86.8, clade B)?
The IC50 was 20 nM.

What about the IC50 (HT593.1, clade B) of the same molecule?
The IC50 was 0.9 nM.

What about the IC50 (HXB2.DG, clade B) of the same molecule?
The IC50 was 1 nM.

And the “% Neutralized” value (IC50 <0.01ug/ml)?
Its value is 46%.

And the “Total Neutralized” value (IC50 <0.01ug/ml)?
Its value is 95.

What about the “% Neutralized” value (IC50 <0.1ug/ml) of the same molecule?
The value was 71%.

And the “Total Neutralized” value (IC50 <0.1ug/ml)?
The value was 147.

And the “% Neutralized” value (IC50 <1.0ug/ml)?
The value was 80%.

What about the “Total Neutralized” value (IC50 <1.0ug/ml) of the same molecule?
The value was 167.

And the “% Neutralized” value (IC50 <10ug/ml)?
Its value is 89%.

And the “Total Neutralized” value (IC50 <10ug/ml)?
Its value is 185.

What about the “% Neutralized” value (IC50 <50ug/ml) of the same molecule?
The value was 91%.

And the “Total Neutralized” value (IC50 <50ug/ml)?
The value was 189.

What about the IC50 (JRCSF.JB, clade B) of the same molecule?
Its IC50 is 0.3 nM.

What about the IC50 (JRFL.JB, clade B) of the same molecule?
The IC50 was 0.4 nM.

What about the IC50 (KER2008.12, clade A) of the same molecule?
Its IC50 is 1870 nM.

And the IC50 (KER2018.11, clade A)?
Its IC50 is 8 nM.

What about the IC50 (KNH1209.18, clade A) of the same molecule?
Its IC50 is 29 nM.

What about the IC50 (M02138, clade AE) of the same molecule?
Its IC50 is 2810 nM.

And the IC50 (MB201.A1, clade A)?
The IC50 was 628 nM.

What about the IC50 (MB539.2B7, clade A) of the same molecule?
The IC50 was 191 nM.

And the IC50 (MI369.A5, clade A)?
Its IC50 is 13 nM.

What about the IC50 (MN.3, clade B) of the same molecule?
The IC50 was 10 nM.

What about the IC50 (MS208.A1, clade A) of the same molecule?
Its IC50 is 11 nM.

And the IC50 (MW965.26, clade C)?
Its IC50 is 433 nM.

And the IC50 (NKU3006.ec1, clade D)?
The IC50 was 5 nM.

What about the IC50 (P0402.c2.11, clade G) of the same molecule?
The IC50 was 32 nM.

And the IC50 (P1981.C5.3, clade G)?
Its IC50 is 209 nM.

What about the IC50 (PVO.04, clade B) of the same molecule?
Its IC50 is 3 nM.

And the IC50 (Q23.17, clade A)?
The IC50 was 12 nM.

What about the IC50 (Q168.a2, clade AD) of the same molecule?
Its IC50 is 115 nM.

And the IC50 (Q259.17, clade A)?
The IC50 was 1230 nM.

And the IC50 (Q461.e2, clade AD)?
The IC50 was 12 nM.

What about the IC50 (Q769.d22, clade A) of the same molecule?
The IC50 was 123 nM.

What about the IC50 (Q769.h5, clade A) of the same molecule?
Its IC50 is 427 nM.

What about the IC50 (Q842.d12, clade A) of the same molecule?
Its IC50 is 17 nM.

What about the IC50 (QH209.14M.A2, clade A) of the same molecule?
Its IC50 is 610 nM.

And the IC50 (QH0515.01, clade B)?
Its IC50 is 12 nM.

And the IC50 (QH0692.42, clade B)?
Its IC50 is 9 nM.

And the IC50 (R1166.c1, clade AE)?
Its IC50 is over 20000 nM.

What about the IC50 (R2184.c4, clade AE) of the same molecule?
Its IC50 is over 20000 nM.

What about the IC50 (R3265.c6, clade AE) of the same molecule?
Its IC50 is 13000 nM.

And the IC50 (REJO.67, clade B)?
Its IC50 is 1040 nM.

And the IC50 (RHPA.7, clade B)?
The IC50 was 4 nM.

What about the IC50 (RW020.2, clade A) of the same molecule?
Its IC50 is 71 nM.

What about the IC50 (SC422.8, clade B) of the same molecule?
The IC50 was 2 nM.

What about the IC50 (SF162.LS, clade B) of the same molecule?
The IC50 was 1 nM.

And the IC50 (SO18.18, clade C)?
The IC50 was 3 nM.

And the IC50 (SS1196.01, clade B)?
The IC50 was 7050 nM.

And the IC50 (T33-7, clade AG)?
Its IC50 is 2810 nM.

And the IC50 (T250-4, clade AG)?
Its IC50 is 15 nM.

And the IC50 (T251-18, clade AG)?
The IC50 was 19 nM.

What about the IC50 (T253-11, clade AG) of the same molecule?
Its IC50 is 1 nM.

And the IC50 (T255-34, clade AG)?
Its IC50 is 82 nM.

What about the IC50 (T257-31, clade AG) of the same molecule?
Its IC50 is 57 nM.

What about the IC50 (T266-60, clade AG) of the same molecule?
Its IC50 is 1370 nM.

And the IC50 (T278-50, clade AG)?
The IC50 was 0.2 nM.

And the IC50 (T280-5, clade AG)?
Its IC50 is 10 nM.

What about the IC50 (TH023.6, clade AE) of the same molecule?
Its IC50 is over 20000 nM.

And the IC50 (TH966.8, clade AE)?
Its IC50 is over 20000 nM.

And the IC50 (TH976.17, clade AE)?
Its IC50 is over 20000 nM.

And the IC50 (THRO.18, clade B)?
Its IC50 is 3 nM.

What about the IC50 (TRJO.58, clade B) of the same molecule?
The IC50 was 1 nM.

What about the IC50 (TRO.11, clade B) of the same molecule?
Its IC50 is 1080 nM.

And the IC50 (TV1.29, clade C)?
The IC50 was 67 nM.

What about the IC50 (TZA125.17, clade C) of the same molecule?
Its IC50 is 14 nM.

And the IC50 (TZBD.02, clade C)?
Its IC50 is 5 nM.

What about the IC50 (UG021.16, clade D) of the same molecule?
The IC50 was 13 nM.

And the IC50 (UG024.2, clade D)?
Its IC50 is 566 nM.

What about the IC50 (UG037.8, clade A) of the same molecule?
The IC50 was 1010 nM.

And the IC50 (WITO.33, clade B)?
The IC50 was 5 nM.

What about the IC50 (X1254.c3, clade G) of the same molecule?
Its IC50 is 43 nM.

What about the IC50 (X1632.S2.B10, clade G) of the same molecule?
The IC50 was 54 nM.

What about the IC50 (X2088.c9, clade G) of the same molecule?
The IC50 was 3 nM.

And the IC50 (X2131.C1.B5, clade G)?
Its IC50 is 267 nM.

What about the IC50 (X2278.C2.B6, clade B) of the same molecule?
Its IC50 is 1260 nM.

What about the IC50 (YU2.DG, clade B) of the same molecule?
Its IC50 is 0.9 nM.

What about the IC50 (ZA012.29, clade C) of the same molecule?
The IC50 was 7 nM.

And the IC50 (ZM53.12, clade C)?
The IC50 was 10 nM.

And the IC50 (ZM55.28a, clade C)?
The IC50 was 6 nM.

And the IC50 (ZM106.9, clade C)?
The IC50 was 17 nM.

What about the IC50 (ZM109.4, clade C) of the same molecule?
Its IC50 is 1 nM.

And the IC50 (ZM135.10a, clade C)?
The IC50 was 889 nM.

And the IC50 (ZM176.66, clade C)?
Its IC50 is 18 nM.

And the IC50 (ZM197.7, clade C)?
Its IC50 is 6 nM.

And the IC50 (ZM214.15, clade C)?
The IC50 was 2 nM.

And the IC50 (ZM215.8, clade C)?
The IC50 was 2 nM.

And the IC50 (ZM233.6, clade C)?
The IC50 was 0.8 nM.

What about the IC50 (ZM249.1, clade C) of the same molecule?
The IC50 was 18 nM.

What about the IC50 ([…], clade C) of the same molecule?
The IC50 was 2 nM.

And the IC50 ([…], clade G)?
The IC50 was 120 nM.
